Test results: patent US9440950B2, “Arginine methyltransferase inhibitors and uses thereof” (Epizyme, Inc., priority 2013, dated 2016)

Test system: Mono-Methyl Arginine in RKO cells
Assay: RKO Methylation Assay (In Cell Western)
Format: cell-based
Conditions: Homo sapiens, 72 hours, percent activation
From the text: RKO Methylation Assay RKO adherent cells were purchased from ATCC (American Type Culture Collection), Manassas, Va., USA. DMEM/Glutamax medium, penicillin-streptomycin, heat inactivated fetal bovine serum, 0.05% trypsin and D-PBS were purchased from Life Technologies, Grand Island, N.Y., USA. Odyssey blocking buffer, 800CW goat anti-rabbit IgG (H+L) antibody, and Licor Odyssey infrared scanner were purchased from Licor Biosciences, Lincoln, Nebr., USA. Mono-methyl arginine antibody was purchased from Cell Signaling Technology, Danvers, Mass., USA. Methanol was purchased from VWR, Franklin, Mass., USA. 10% Tween 20 was purchased from KPL, Inc., Gaithersburg, Md., USA. DRAQ5 was purchased from Biostatus Limited, Leicestershire, UK. RKO adherent cells were maintained in growth medium (DMEM/Glutamax medium supplemented with 10% v/v heat inactivated fetal bovine serum and 100 units/mL penicillin-streptomycin) and cultured at 37° C. under 5% CO2. Cell Treatment, In Cell Western (ICW) for Detection of Mono-Methyl Arginine and DNA Content. RKO cells were seeded in assay medium at a concentration of 20,000 cells per mL to a poly-D-lysine coated 384 well culture plate (BD Biosciences 356697) with 50 μL per well. Compound (100 nL) from a 96-well source plate was added directly to 384 well cell plate. Plates were incubated at 37° C., 5% CO2 for 72 hours. After three days of incubation, plates were brought to room temperature outside of the incubator for ten minutes and blotted on paper towels to remove cell media. 50 μL of ice cold 100% methanol was added directly to each well and incubated for 30 min at room temperature. After 30 min, plates were transferred to a Biotek EL406 plate washer and washed 2 times with 100 μL per well of wash buffer (IX PBS). Next 60 μL per well of Odyssey blocking buffer (Odyssey Buffer with 0.1% Tween 20 (v/v)) were added to each plate and incubated 1 hour at room temperature. Blocking buffer was removed and 20 μL per well of primary antibody was added (mono-methyl arginine diluted 1:200 in Odyssey buffer with 0.1% Tween 20 (v/v)) and plates were incubated overnight (16 hours) at 4° C. Plates were washed 5 times with 100 μL per well of wash buffer. Next 20 μL per well of secondary antibody was added (1:200 800CW goat anti-rabbit IgG (H+L) antibody, 1:1000 DRAQ5 (Biostatus limited) in Odyssey buffer with 0.1% Tween 20 (v/v)) and incubated for 1 hour at room temperature. The plates were washed 5 times with 100 μL per well wash buffer then 2 times with 100 μL per well of water. Plates were allowed to dry at room temperature then imaged on the Licor Odyssey machine which measures integrated intensity at 700 nm and 800 nm wavelengths. Both 700 and 800 channels were scanned. Calculations: First, the ratio for each well was determined by: Each plate included fourteen control wells of DMSO only treatment (minimum activation) as well as fourteen control wells for maximum activation treated with 20 μM of a reference compound. The average of the ratio values for each control type was calculated and used to determine the percent activation for each test well in the plate. Reference compound was serially diluted three-fold in DMSO for a total of nine test concentrations, beginning at 20 μM. Percent activation was determined and EC30 curves were generated using triplicate wells per concentration of compound.

SMILES	EC30 [µM]
COc1ccc(-c2n[nH]cc2CN(C)CCN)cn1 [Compound 5]	> 12
CN(CCN)Cc1c[nH]nc1-c1cncc(F)c1 [Compound 7]	> 12
CN(CCN)Cc1c[nH]nc1-c1ccncc1 [Compound 9]	3.01 to 12
COc1cc(-c2n[nH]cc2CN(C)CCN)ccn1 [Compound 11]	3.01 to 12
COc1cc(-c2n[nH]cc2CN(C)CCN)c(Cl)cn1 [Compound 12]	> 12
CN(CCN)Cc1c[nH]nc1-c1ccc(C(F)(F)F)nc1 [Compound 13, N^1-methyl-N^1-((3-(6-(trifluoromethyl)pyridin-3-yl)-1H-pyrazol-4-yl)methyl)ethane-1,2-diamine]	< 3
COc1ncc(Cl)cc1-c1n[nH]cc1CN(C)CCN [Compound 14]	> 12
COc1ncccc1-c1n[nH]cc1CN(C)CCN [Compound 15]	> 12
COc1ccncc1-c1n[nH]cc1CN(C)CCN [Compound 16]	> 12
Cc1ccncc1-c1n[nH]cc1CN(C)CCN [Compound 17]	> 12
CN(CCN)Cc1c[nH]nc1-c1cncc(C#N)c1 [Compound 18]	> 12
CN(CCN)Cc1c[nH]nc1-c1cncc(Cl)c1 [Compound 19]	3.01 to 12
CN(CCN)Cc1c[nH]nc1-c1ccc(N2CCOCC2)nc1 [Compound 20]	3.01 to 12
CC(C)CN(C)c1ccc(-c2n[nH]cc2CN(C)CCN)cn1 [Compound 21]	3.01 to 12
CC(C)Oc1ccc(-c2n[nH]cc2CN(C)CCN)cn1 [Compound 22]	< 3
CN(CCN)Cc1c[nH]nc1-c1ccc(N(C)Cc2ccccc2)nc1 [Compound 23]	3.01 to 12
CCN(CC)c1ccc(-c2n[nH]cc2CN(C)CCN)cn1 [Compound 24]	> 12
CN(CCN)Cc1c[nH]nc1-c1ccc(NCc2ccccc2)nc1 [Compound 25]	3.01 to 12
CC(C)CNc1ccc(-c2n[nH]cc2CN(C)CCN)cn1 [Compound 26]	> 12
CNCCN(C)Cc1c[nH]nc1-c1ccc(N(C)CCC(C)C)nc1 [Compound 30]	3.01 to 12
CNCCN(C)Cc1c[nH]nc1-c1ccc(N(CC(C)C)CC(C)C)nc1 [Compound 31]	> 12
CNCCN(C)Cc1c[nH]nc1-c1ccc(N(C)CC(C)C)nc1 [Compound 32, N^1-((3-(6-(isobutyl(methyl)amino)pyridin-3-yl)-1H-pyrazol-4-yl)methyl)-N^1,N^2-dimethylethane-1,2-diamine]	< 3
CNCCN(C)Cc1c[nH]nc1-c1ccc(N(C)C(C)C)nc1 [Compound 33, N^1-((3-(6-(isopropyl(methyl)amino)pyridin-3-yl)-1H-pyrazol-4-yl)methyl)-N^1,N^2-dimethylethane-1,2-diamine]	< 3
CCN(CCC(C)C)c1ccc(-c2n[nH]cc2CN(C)CCNC)cn1 [Compound 34, N^1-((3-(6-(ethyl(isopentyl)amino)pyridin-3-yl)-1H-pyrazol-4-yl)methyl)-N^1,N^2-dimethylethane-1,2-diamine]	< 3
CNCCN(C)Cc1c[nH]nc1-c1ccc(OCC(C)C)nc1 [Compound 35, N^1-((3-(6-iso-butoxypyridin-3-yl)-1H-pyrazol-4-yl)methyl)-N^1,N^2-dimethylethane-1,2-diamine]	< 3
CCN(CC(C)C)c1ccc(-c2n[nH]cc2CN(C)CCNC)cn1 [Compound 36]	3.01 to 12
